One experiment relates to SKNSH nerve cells. Put plainly: Inhibition of calcium flux (IC50Ca2+) on SKNSH nerve cells. Format: cell-based. To be noted: Homo sapiens, SK-N-SH, concentration which inhibits release of Ca2+ by 50%. An excerpt:
(§1) In order for a substance to be recognized as a calcium-channel inhibitor, it must be able to reduce the intracellular calcium concentration or reduce the binding of calcium to intracellular proteins, such as, for example, calmodulin, such as is described in particular by Galizzi, J. P. et al., J. Biol. Chem., 1987, 262 p. 6947; by Y. Okamiya et al., Eur. J. Pharmacol., 1991, 205, p. 49; by J. A. Wagner et al., J. Neurosci., 1988, 8, p. 3354; by H. R. Lee et al., Life Sci., 1984, 35, p. 721; by Schoemaker H. and Lauger S., Eur. J. Pharmacol., 1985, 111, p. 273 or by I. J. Reynolds et al., J. Pharmacol. Exp. Ther., 1986, 237, p. 731.
(§2) The Applicant determined the IC50Ca2+ for inhibition of calcium flux of three compounds according to the invention using the protocol shown in these documents. IC50Ca2+ represents the concentration which inhibits release of Ca^2+ by 50%.

The subject of experiment [1] is Ca2+ channel (L, verapamil site). The experiment can be described thus: Competitive inhibition of [3H]-(-)-D888 binding to L-type calcium channels, rat cerebral cortex homogenates. To be noted: 1 μM in DMSO; [3H]-(-)-D888 0.5 nM; 60 min/22° C. An excerpt:
The experimental conditions are as follows:
D888, which is [^3H]-(−)-desmethoxyverapamil, acts as radiolabelled specific ligand and D600, which is (±)-methoxyverapamil hydrochloride, acts as reference molecule.
The specific binding of a ligand (labelled D888) to the receptors (L-type calcium channels, verapamil site) is defined as the difference between the total binding and the non-specific binding determined in the presence of an excess of cold (nonradioactive) ligand. The results are expressed as percentage of inhibition of the specific binding of the control in the presence of the compound tested.

For experiment [2], the system named is cells resulting from HFDa skin fibroblasts. The experiment can be described thus: Inhibition of calcium flux (IC50Ca2+) on cells from HFDa skin fibroblasts. The settings on record: Skin fibroblast, concentration which inhibits release of Ca2+ by 50%. Format: cell-based.
Description: as §1, §2

A short description of experiment [3]: Antiwrinkle activity in vivo. The settings on record: earlier demonstration, no details.
Experiment [4] deals with human striated muscle cells innervated with explants of rat embryo spinal ganglia and spinal cord. The experiment can be described thus: Nerve/muscle coculture model, contractions of muscle fibres. Format: cell-based. To be noted: earlier demonstration by the Applicant Company, concentration not given. The procedure: The mixture of compounds of Example 2 was tested on a model of nerve/muscle coculture which makes it possible to recreate a motor arc by innervating human striated muscle cells with explants of rat embryo spinal ganglia and spinal cord.
Human muscle cells, resulting from samples of striated muscles from a healthy donor, are inoculated in wells with a cross section of 1.8 cm^2 (24-well culture dishes). After culturing for 10 days, these cells form a monolayer and fuse. At this stage, spinal cord explants from rat embryos aged 13 days comprising the spinal ganglia are deposited on the culture.
The growth of the neurites is visible outside the spinal cord explant after culturing for one day. The first contractions of the muscle fibres are observed after coculturing for 5 to 6 days and, after 3 weeks, all the muscle fibres in the vicinity of the explants are contracting.
The cocultures are used after 21 days, when the muscle fibres are striated and have mature differentiated neuromuscular junctions.
A muscle fibre having regular contractions (at least 60 contractions per minute) is then selected from three different culture wells and the number of contractions is counted over 30 seconds. […] At the end of incubation, the number of contractions is again counted over 30 seconds. […]

Turning to `CCCCCCCCCC(=O)OCCOCCN(CC)CC` [((Diethylamino)ethoxy)ethyl decanoate], the IC50 in the experiment on SKNSH nerve cells stood at 26 µM.

Take `CCCCCCCCCCCC(=O)OCCOCCN(CC)CC` [((Diethylamino)ethoxy)ethyl laurate, ((diethylamino)ethoxy)ethyl laurate]: the “percentage of inhibition of the specific binding of the control” value in experiment [1] is on record as 31%. Besides, the IC50 came to 13 µM in experiment [2] and 11 µM in the experiment with SKNSH nerve cells.

For `CCCCCCCCCCCCCCCC(=O)OCCOCCN(CC)CC` [((Diethylamino)ethoxy)ethyl palmitate], the IC50 in experiment [2] was found to be 14 µM; with SKNSH nerve cells it was 24 µM.

Regarding `CCCCCCCCCCCCCCCCCC(=O)OCCOCCN(CC)CC` [((Diethylamino)ethoxy)ethyl stearate], in the experiment on SKNSH nerve cells, the IC50 is 37 µM.

`CN1C(=O)CN=C(c2ccccc2)c2cc(Cl)ccc21` [diazepam]: the antiwrinkle activity entry in experiment [3] is on record as “demonstrated in vivo”. In addition, the “contractions of the muscle fibres” value in experiment [4] is “inhibited the contractions of the muscle fibres”.

(Values after patent US20080287537A1, “Composition, Particularly a Cosmetic Composition, Comprising ((Dialkylamino)Alkoxy) Ethanol Ester” (L'OREAL, priority 2004, published 2008).)
